In article PMC9150124, “Design of a Potent, Selective, and Brain-Penetrant Inhibitor of Wnt-Deactivating Enzyme Notum by Optimization of a Crystallographic Fragment Hit” (Journal of Medicinal Chemistry, 2022):

Columns and labels:
Test in all cases: SelectScreen kinase profiling, SSBK LanthaScreen Binding SP Technology
[1] = molecular target: kinase named in conditions (Homo sapiens, UniProt P45983); details: MAPK8 (JNK1), 10 μM
[2] = molecular target: kinase named in conditions (Homo sapiens, UniProt Q9BWU1); details: 10 μM
[3] = molecular target: kinase named in conditions (Homo sapiens, UniProt Q8NFD2); details: ANKK1, 10 μM
[4] = molecular target: kinase named in conditions (Homo sapiens, UniProt Q96RR4); details: CAMKK2 (CaMKK beta), 10 μM
[5] = molecular target: kinase named in conditions (Homo sapiens, UniProt P06241); details: FYN A, 10 μM
[6] = molecular target: kinase named in conditions (Homo sapiens, UniProt Q9HBH9); details: MKNK2 (MNK2), 10 μM
[7] = molecular target: kinase named in conditions (Homo sapiens, UniProt Q16513); details: PKN2 (PRK2), 10 μM
[8] = molecular target: kinase named in conditions (Homo sapiens, UniProt Q02750, S218D/S222D); details: MAP2K1 (MEK1) S218D S222D, 10 μM
[9] = molecular target: kinase named in conditions (Homo sapiens, UniProt Q15208); details: STK38 (NDR), 10 μM
[10] = molecular target: kinase named in conditions (Homo sapiens, UniProt Q9NRM7); details: LATS2, 10 μM
[11] = molecular target: kinase named in conditions (Homo sapiens, UniProt Q04771); details: ACVR1 (ALK2), 10 μM
[12] = molecular target: kinase named in conditions (Homo sapiens, UniProt Q9UM73, R1275Q); details: ALK R1275Q, 10 μM
[13] = molecular target: kinase named in conditions (Homo sapiens, UniProt Q96S53); details: TESK2, 10 μM
[14] = molecular target: kinase named in conditions (Homo sapiens, UniProt P10721, D816V); details: KIT D816V, 10 μM
[15] = molecular target: kinase named in conditions (Homo sapiens, UniProt Q9H2G2); details: SLK, 10 μM
[16] = molecular target: kinase named in conditions (Homo sapiens, UniProt O14976); details: GAK, 10 μM
[17] = molecular target: kinase named in conditions (Homo sapiens, UniProt P53671); details: LIMK2, 10 μM
[18] = molecular target: kinase named in conditions (Homo sapiens, UniProt Q99640); details: PKMYT1, 10 μM
[19] = molecular target: kinase named in conditions (Homo sapiens, UniProt Q99558); details: MAP3K14 (NIK), 10 μM
[20] = molecular target: kinase named in conditions (Homo sapiens, UniProt P00519, M351T); details: ABL1 M351T, 10 μM
[21] = molecular target: kinase named in conditions (Homo sapiens, UniProt P08581, D1228H); details: MET D1228H, 10 μM
[22] = molecular target: kinase named in conditions (Homo sapiens, UniProt Q9Y572); details: RIPK3, 10 μM
[23] = molecular target: kinase named in conditions (Homo sapiens, UniProt Q92630); details: DYRK2, 10 μM
[24] = molecular target: kinase named in conditions (Homo sapiens, UniProt Q8IVH8); details: MAP4K3 (GLK), 10 μM
[25] = molecular target: kinase named in conditions (Homo sapiens, UniProt P36897); details: TGFBR1 (ALK5), 10 μM
[26] = molecular target: kinase named in conditions (Homo sapiens, UniProt Q00526); details: CDK3/cyclin E1, 10 μM
[27] = molecular target: kinase named in conditions (Homo sapiens, UniProt P10721, A829P); details: KIT A829P, 10 μM
[28] = molecular target: kinase named in conditions (Homo sapiens, UniProt Q8WXR4); details: MYO3B (MYO3 beta), 10 μM
[29] = tested on: kinase named in conditions
[30] = molecular target: kinase named in conditions (Homo sapiens, UniProt Q9NY57); details: STK32B (YANK2), 10 μM
[31] = molecular target: kinase named in conditions (Homo sapiens, UniProt Q9UKI8); details: TLK1, 10 μM
[32] = molecular target: kinase named in conditions (Homo sapiens, UniProt Q8IYT8); details: ULK2, 10 μM
[33] = molecular target: kinase named in conditions (Homo sapiens, UniProt Q12866, A708S); details: MERTK (cMER) A708S, 10 μM
[34] = molecular target: kinase named in conditions (Homo sapiens, UniProt Q8IWQ3); details: BRSK2, 10 μM

## FC(F)(F)c1c(Cl)ccc(-n2ccnn2)c1Cl [8l, 1-(2,4-Dichloro-3-(trifluoromethyl)phenyl)-1H-1,2,3-triazole]
[1]
  inhibition at 10 µM: -9%
[2]; CDK11 (Inactive)
  inhibition at 10 µM: 12%
[2]; CDK11/cyclin C
  inhibition at 10 µM: 23%
[3]
  inhibition at 10 µM: -4%
[4]
  inhibition at 10 µM: -1%
[5]
  inhibition at 10 µM: -8%
[6]
  inhibition at 10 µM: 3%
[7]
  inhibition at 10 µM: -4%
[8]
  inhibition at 10 µM: 2%
[9]
  inhibition at 10 µM: -8%
[10]
  inhibition at 10 µM: 7%
[11]
  inhibition at 10 µM: 12%
[12]
  inhibition at 10 µM: -2%
[13]
  inhibition at 10 µM: 6%
[14]
  inhibition at 10 µM: 26%
[15]
  inhibition at 10 µM: 4%
[16]
  inhibition at 10 µM: 17%
[17]
  inhibition at 10 µM: -3%
[18]
  inhibition at 10 µM: 0%
[19]
  inhibition at 10 µM: 16%
[20]
  inhibition at 10 µM: 24%
[21]
  inhibition at 10 µM: -13%
[22]
  inhibition at 10 µM: 10%
[23]
  inhibition at 10 µM: -1%
[24]
  inhibition at 10 µM: 6%
[25]
  inhibition at 10 µM: -1%
[26]
  inhibition at 10 µM: 4%
[27]
  inhibition at 10 µM: -3%
[28]
  inhibition at 10 µM: 4%
[29]; ALK T1151_L1152insT, 10 μM
  % Inhibition mean: 3%
[29]; EGFR (ErbB1) d746-750, 10 μM
  % Inhibition mean: 2%
[29]; EGFR (ErbB1) d747-749 A750P, 10 μM
  % Inhibition mean: -6%
[29]; FLT3 ITD, 10 μM
  % Inhibition mean: -15%
[30]
  inhibition at 10 µM: 12%
[31]
  inhibition at 10 µM: 7%
[32]
  inhibition at 10 µM: 8%
[33]
  inhibition at 10 µM: -3%
[34]
  inhibition at 10 µM: 4%
